Measured values published in US8242118B2, “Arylsulfonamide derivatives for use as CCR3 antagonists in the treatment of inflammatory and immunological disorders” (Axikin Pharmaceuticals Inc., priority 2001, dated 2012).
Structures can show the parent of a compound that is named as a salt.

Each compound was assayed against T1, Human CCR3 (Homo sapiens, UniProt P51677) (assay: Receptor binding assay (RBA), [125I]-eotaxin). Settings: human CCR3-transformed K562 cells, 0.1 nM [125I]-eotaxin; compounds of about 40 to 90% purity; read-out: Activity grade RBA (IC50 class).
T1 construct: The cloned CCR3 cDNA was constructed with pcDNA3 vector and transfected into a IC562 cell line; expressed in transfected cells
T1 sequence (P51677 1-355): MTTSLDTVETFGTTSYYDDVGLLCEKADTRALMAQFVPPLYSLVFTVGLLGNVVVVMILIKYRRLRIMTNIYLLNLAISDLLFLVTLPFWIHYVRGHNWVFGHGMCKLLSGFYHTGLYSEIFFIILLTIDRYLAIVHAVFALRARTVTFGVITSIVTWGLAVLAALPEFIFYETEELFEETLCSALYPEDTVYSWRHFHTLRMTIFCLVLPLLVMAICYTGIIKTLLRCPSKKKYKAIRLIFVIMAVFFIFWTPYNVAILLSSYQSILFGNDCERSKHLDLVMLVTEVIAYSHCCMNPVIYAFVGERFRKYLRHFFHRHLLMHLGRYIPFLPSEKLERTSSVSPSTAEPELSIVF
Method: [Determination of IC50 Values of Compounds in Receptor Binding Assay]
• Human CCR3-transformed K562 cells were used. The cloned CCR3 cDNA was constructed with pcDNA3 vector and transfected into a IC562 cell line. The human CCR3-transformed K562 cells were maintained in RPMI-1640 (Cat.#22400-089, Life Technologies) supplemented with 10% FCS (Cat.#A-1115-L, Hyclone), 55 μM 2-mercaptoethanol (Cat.#21985-023, Life Technologies), 1 mM sodium pyruvate (Cat.#11360-070, Life Technologies), 100 units/ml of penicillin G and 100 μg/ml of streptomycin (Cat.#15140-122, Life Technologies), and 0.4 mg/ml of Geneticin (Cat.#10131-035, Life Technologies)(hereinafter called “culture medium”). Before the receptor binding assay, cells were pretreated with 5 mM sodium butyrate (Cat.#193-01522, Wako)-containing the culture medium (2×10^5 cells/ml) for 20-24 hours to increase the expression of CCR3. (2) Receptor Binding Assay (RBA) • Butyrate-pretreated cells, suspended in binding buffer (25 mM HEPES pH 7.6, 1 mM CaCl2, 5 mM MgCl2, 0.5% BSA, 0.1% NaN3) at a cell density of 2×10^6 cells/ml, were added into 60 μl/well in the 96-well round bottom polypropylene plate (Cat.#3365, Costar). Compounds, diluted with the binding buffer (4-times higher concentration of the final concentration), were added into 30 μl/well in the polypropylene plate. [^125I]-labeled human eotaxin (Cat.#IM290, Amersham Pharmacia Biotech), diluted with the binding buffer at the concentration of 0.4 nM (final concentration; 0.1 nM), was added into 30 μl/well in the polypropylene plate. Total 120 μl/well of binding reaction mixture (60 μl/well of cell suspension, 30 μl/well of compound solution, and 30 μl/well of [^125I]-labeled eotaxin) were incubated in the polypropylene plate for 1 hour at room temperature after the incubation, 100 μl/well of the reaction mixture was transferred to a filtration plate (Cat.#MAFB-N0B, Millipore), and washed with the washing buffer (25 mM HEPES pH 7.6, 1 mM CaCl2, 5 mM MgCl2, 0.5% BSA, 0.1% NaN3, 0.5 M NaCl) twice. The 96-well filtration plate was pretreated with 100 μl/well of 0.5% polyethylenimine (Cat.#P-3143, Sigma) for 2-4 hours at room temperature and washed with the washing buffer twice before use. The non-specific binding was determined by parallel incubation in the presence of 500 nM of non-labeled eotaxin (Cat.#23209, Genzyme Techne). The radioactivities remained on the filter were measured by liquid scintillation counter (TopCount™, Packard) after an addition of 45 μl/well of scintillant (Microscint20, Cat.#6013621, Packard). The inhibition percent at each concentration of compound was calculated, and IC50 values were determined from the inhibition curve. [Determination of IC50 Values of Compounds in Calcium Mobilization Assay] (IC50 Ca2+) (1) Cell • Human CCR3-transformed K562 cells were used. The human CCR3-transformed K562 cells were maintained in RPMI-1640 supplemented with 10% FCS, 55 μM 2-mercaptoethanol (Cat.#21985-023, Life Technologies), 1 mM sodium pyruvate, 100 units/ml of penicillin G and 100 μg/ml of streptomycin and 0.4 mg/ml of Geneticin. Before the calcium mobilization assay, cells were pretreated with 5 mM sodium butyrate-containing the culture medium (2×10^5 cells/ml) for 20-24 hours to increase the expression of CCR3. (2) Calcium Mobilization Assay • Butyrate-pretreated cells were loaded with Fluo-3AM (Cat.#F-1242, Molecular Probes) in loading buffer (Hanks' solution Cat.#05906 Nissui, 20 mM HEPES pH 7.6, 0.1% BSA, 1 mM probenecid Cat.#P-8761 Sigma, 1 μM Fluo-3AM, 0.01% pluronic F-127 Cat.#P-6866 Molecular Probes) at a cell density of 1×10^7 cells/ml. Then, cells were washed with calcium assay buffer (Hanks' solution Cat.#05906 Nissui, 20 mM HEPES pH 7.6, 0.1% BSA, 1 mM Probenecid Cat.#P-8761 Sigma). The cell suspension (3.3×10^6 cells/ml) was added into 60 μl/well in the 96-well clear bottom black plate (Cat.#3904, Costar). […]
In the case of `Cc1cc(C)cc(Oc2ccc([N+](=O)[O-])cc2S(=O)(=O)N2CCNCC2)c1` [Example 1-2, 1-{[2-(3,5-dimethylphenoxy)-5-nitrophenyl]sulfonyl}piperazine hydrochloride], the IC50 is reported as less than 1000 nM.
`O=[N+]([O-])c1ccc(Oc2ccccc2)c(S(=O)(=O)N2CCNCC2)c1` [Example 1-18] gave an IC50 of 1000 to 10000 nM.
Work on `COc1ccc(Oc2ccc([N+](=O)[O-])cc2S(=O)(=O)N2CCNCC2)cc1` [Example 1-19] yielded an IC50 greater than 10000 nM.
Compound `O=[N+]([O-])c1ccc(Oc2ccc(F)cc2)c(S(=O)(=O)N2CCNCC2)c1` [Example 1-20] has an IC50 greater than 10000 nM.
Compound `CC(C)(C)c1ccc(Oc2ccc([N+](=O)[O-])cc2S(=O)(=O)N2CCNCC2)cc1` [Example 1-21] has an IC50 greater than 10000 nM.
`O=[N+]([O-])c1ccc(Oc2ccc(Cl)cc2)c(S(=O)(=O)N2CCNCC2)c1` [Example 1-22] showed an IC50 greater than 10000 nM.
`O=[N+]([O-])c1ccc(Oc2cccc(F)c2)c(S(=O)(=O)N2CCNCC2)c1` [Example 1-25] showed an IC50 of less than 1000 nM.
For `N#Cc1ccccc1Oc1ccc([N+](=O)[O-])cc1S(=O)(=O)N1CCNCC1` [Example 1-29], the IC50 was 1000 to 10000 nM.
Work on `Cc1cc(Oc2ccc([N+](=O)[O-])cc2S(=O)(=O)N2CCNCC2)c(C(C)C)cc1Cl` [Example 1-81] yielded an IC50 greater than 10000 nM.
For `Cc1cc(C)cc(Oc2ccc([N+](=O)[O-])cc2S(=O)(=O)N2CCN(CCOCCO)CC2)c1` [Example 1-89], the IC50 was less than 1000 nM.
`Cc1cc(C)cc(Oc2ccc([N+](=O)[O-])cc2S(=O)(=O)N2CCCNCC2)c1` [Example 1-90] gave an IC50 of less than 1000 nM.
`Cc1cc(C)cc(Oc2ccc([N+](=O)[O-])cc2S(=O)(=O)N2CC(C)NC(C)C2)c1` (centres unmarked) [Example 1-92] was tested, and the IC50 was less than 1000 nM.
With `CC1CN(S(=O)(=O)c2cc([N+](=O)[O-])ccc2Oc2cc(Cl)cc(Cl)c2)CC(C)N1` (centres unmarked) [Example 1-93] the IC50 was less than 1000 nM.
`Cc1cc(C)cc(Sc2ccc([N+](=O)[O-])cc2S(=O)(=O)N2CCNCC2)c1` [Example 2-1, 1-({2-[(3,5-dimethylphenyl)-sulfanyl]-5-nitrophenyl}sulfonyl)piperazine hydrochloride] was tested, and the IC50 was less than 1000 nM.
`Cc1cc(C)cc(Oc2ccc(N)cc2S(=O)(=O)N2CCN(C(=O)OC(C)(C)C)CC2)c1` [Example 5-1, tert-butyl 4-{[5-amino-2-(3,5-dimethyl-phenoxy)phenyl]sulfonyl}-1-piperazinecarboxylate] gave an IC50 greater than 10000 nM.
For `Cc1cc(C)cc(Oc2ccc(Cl)cc2S(=O)(=O)N2CCNCC2)c1` [Example 5-2, 1-{[5-chloro-2-(3,5-dimethylphenoxy)phenyl]sulfonyl}piperazine hydrochloride], the IC50 was less than 1000 nM.
For `Cc1cc(C)cc(Oc2ccc(O)cc2S(=O)(=O)N2CCNCC2)c1` [Example 6-1, 4-(3,5-dimethylphenoxy)-3-(1-piperazinylsulfonyl)phenol hydrochloride], the IC50 was greater than 10000 nM.
`COc1ccc(Oc2cc(C)cc(C)c2)c(S(=O)(=O)N2CCNCC2)c1` [Example 6-2, hydrochloride] was tested, and the IC50 was less than 1000 nM.
Compound `Cc1cc(C)cc(Oc2ccc(Br)cc2S(=O)(=O)N2CCNCC2)c1` [Example 8-1, 1-{[5-bromo-2-(3,5-dimethylphenoxy)phenyl]sulfonyl}piperazine hydrochloride] has an IC50 of less than 1000 nM.
With `Cc1cc(C)cc(Oc2ccc(C#N)cc2S(=O)(=O)N2CCNCC2)c1` [Example 9-1, 4-(3,5-dimethylphenoxy)-3-(1-piperazinylsulfonyl)benzonitrile hydrochloride] the IC50 was less than 1000 nM.
`CN(C)C(=O)c1ccc(Oc2cc(Cl)cc(Cl)c2)c(S(=O)(=O)N2CCNCC2)c1` [Example 10-1, 4-(3,5-dichlorophenoxy)-N,N-dimethyl-3-(1-piperazinylsulfonyl)benzamide hydrochloride] gave an IC50 of 1000 to 10000 nM.
For `Cc1cc(C)cc(Oc2cc3cc[nH]c3cc2S(=O)(=O)N2CCNCC2)c1` [Example 11-1, 5-(3,5-dimethylphenoxy)-6-(1-piperazinylsulfonyl)-1H-indole trifluoroacetate], the IC50 was greater than 10000 nM.
With `N#Cc1ccc(Nc2cc(Cl)cc(Cl)c2)c(S(=O)(=O)N2CCNCC2)c1` [Example 20-1, 4-[(3,5-dichlorophenyl)amino]-3-(1-piperazinylsulfonyl)benzonitrile hydrochloride] the IC50 was less than 1000 nM.
